Literature values as cited in PubChem BioAssay AID1259409 (Chemical Carcinogenesis Research Information System (CCRIS), 2018).

System: rodent chemically induced tumor inhibition, incidence and multiplicity
Assay: CCRIS tumor inhibitor studies
Conditions: Carcinogen: 7,12-DIMETHYLBENZ[A]ANTHRACENE, 57-97-6, Dose [Inhibitor]: 0

In the case of `COc1c2ccoc2c(OC)c2oc(=O)ccc12`, the “tumour outcome (control, treated, inhibition, significance)” value (30 MG/KG BW TWICE AT 24 HR AND 2 HR PRIOR TO CARCINOGEN DOSE (STUDY DURATION: 18 WK), Route [Inhibitor]: GAVAGE, Species: MOUSE, Strain/Sex: SENCAR/FEMALE, Target Tissue: Type of Lesion: INTEGUMENTARY SYSTEM: SKIN PAPILLOMA, Dose [Carcinogen]: 10 NMOL IN 0.2 ML ACETONE ONCE, Promoter: 12-O-TETRADECANOYLPHORBOL-13-ACETATE, 16561-29-8) is listed as 30/30 (100%), 29/30 (97%), 3%, not significant, the “tumour outcome (control, treated, inhibition, significance)” value (70 MG/KG BW TWICE AT 24 HR AND 2 HR PRIOR TO CARCINOGEN DOSE (STUDY DURATION: 18 WK), Route [Inhibitor]: GAVAGE, Species: MOUSE, Strain/Sex: SENCAR/FEMALE, Target Tissue: Type of Lesion: INTEGUMENTARY SYSTEM: SKIN PAPILLOMA, Dose [Carcinogen]: 10 NMOL IN 0.2 ML ACETONE ONCE, Promoter: 12-O-TETRADECANOYLPHORBOL-13-ACETATE, 16561-29-8) is listed as 30/30 (100%), 26/30 (86%), 14%, not significant and the “tumour outcome (control, treated, inhibition, significance)” value (150 MG/KG BW TWICE AT 24 HR AND 2 HR PRIOR TO CARCINOGEN DOSE (STUDY DURATION: 18 WK), Route [Inhibitor]: GAVAGE, Species: MOUSE, Strain/Sex: SENCAR/FEMALE, Target Tissue: Type of Lesion: INTEGUMENTARY SYSTEM: SKIN PAPILLOMA, Dose [Carcinogen]: 10 NMOL IN 0.2 ML ACETONE ONCE, Promoter: 12-O-TETRADECANOYLPHORBOL-13-ACETATE, 16561-29-8) is listed as 30/30 (100%), 23/30 (78%), 22%, p< 0.006. The “tumour outcome (control, treated, inhibition, significance)” value (400 NMOL IN 0.2 ML ACETONE ONCE 5 MIN PRIOR TO CARCINOGEN DOSE (STUDY DURATION: 18 WK), Route [Inhibitor]: DERMAL, Species: MOUSE, Strain/Sex: SENCAR/FEMALE, Target Tissue: Type of Lesion: INTEGUMENTARY SYSTEM: SKIN PAPILLOMA, Dose [Carcinogen]: 10 NMOL IN 0.2 ML ACETONE ONCE, Promoter: 12-O-TETRADECANOYLPHORBOL-13-ACETATE, 16561-29-8) was 30/30 (100%), 28/30 (93%), 7%, not significant, the “tumour outcome (control, treated, inhibition, significance)” value (800 NMOL IN 0.2 ML ACETONE ONCE 5 MIN PRIOR TO CARCINOGEN DOSE (STUDY DURATION: 18 WK), Route [Inhibitor]: DERMAL, Species: MOUSE, Strain/Sex: SENCAR/FEMALE, Target Tissue: Type of Lesion: INTEGUMENTARY SYSTEM: SKIN PAPILLOMA, Dose [Carcinogen]: 10 NMOL IN 0.2 ML ACETONE ONCE, Promoter: 12-O-TETRADECANOYLPHORBOL-13-ACETATE, 16561-29-8) was 30/30 (100%), 27/30 (90%), 10%, not significant and the “tumour outcome (control, treated, inhibition, significance)” value (1600 NMOL IN 0.2 ML ACETONE ONCE 5 MIN PRIOR TO CARCINOGEN DOSE (STUDY DURATION: 18 WK), Route [Inhibitor]: DERMAL, Species: MOUSE, Strain/Sex: SENCAR/FEMALE, Target Tissue: Type of Lesion: INTEGUMENTARY SYSTEM: SKIN PAPILLOMA, Dose [Carcinogen]: 10 NMOL IN 0.2 ML ACETONE ONCE, Promoter: 12-O-TETRADECANOYLPHORBOL-13-ACETATE, 16561-29-8) was 30/30 (100%), 23/30 (77%), 23%, p< 0.002. The “tumour outcome (control, treated, inhibition, significance)” value (3200 NMOL IN 0.2 ML ACETONE ONCE 5 MIN PRIOR TO CARCINOGEN DOSE (STUDY DURATION: 18 WK), Route [Inhibitor]: DERMAL, Species: MOUSE, Strain/Sex: SENCAR/FEMALE, Target Tissue: Type of Lesion: INTEGUMENTARY SYSTEM: SKIN PAPILLOMA, Dose [Carcinogen]: 10 NMOL IN 0.2 ML ACETONE ONCE, Promoter: 12-O-TETRADECANOYLPHORBOL-13-ACETATE, 16561-29-8) was 30/30 (100%), 27/30 (89%), 11%, not significant.

For `CC1=CCC(C(C)(O)CO)CC1` (centres undefined), the “tumour outcome (control, treated, inhibition, significance)” value (1% IN DIET FOR 3 WK BEGINNING 2 WK PRIOR TO CARCINOGEN DOSE (STUDY DURATION: 20 WK), Route [Inhibitor]: ORAL, Species: RAT, Strain/Sex: WISTAR/FEMALE, Target Tissue: Type of Lesion: MAMMARY GLAND: CARCINOMA, Dose [Carcinogen]: 50 MG/KG IN SESAME OIL ONCE, Promoter: NONE USED) is listed as 98%, 84%, 14%, not significant.

For `Clc1c(Cl)c(Cl)c2c(c1Cl)Oc1c(Cl)c(Cl)c(Cl)c(Cl)c1O2`, the “tumour outcome (control, treated, inhibition, significance)” value (17 NMOL 2/WK APPLIED 1 HR PRIOR TO EACH PROMOTER DOSE FOR 20 WK (STUDY DURATION: 21 WK), Route [Inhibitor]: DERMAL, Species: MOUSE, Target Tissue: Type of Lesion: SKIN: TUMOR, Dose [Carcinogen]: 390 NMOL ONCE, Promoter: 12-O-TETRADECANOYLPHORBOL-13-ACETATE, 16561-29-8) is listed as 100%, 87%, 13%, not calculated.
